According to ChEMBL document CHEMBL1201862, “PubChem BioAssay data set” (2004):
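48-hour exposure; five concentrations; linearly interpolated endpoints. At the GI50, growth is halved.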 Calls of active or inactive are those of the source. No stated cut-off is given here; in the data, active = GI50 up to about 1.1 µM and inactive = higher.

Tests used:
Experiment in all cases: inhibition of tumour cell growth, NCI panel, 48 h
786-0 = system: 786-0
A498 = system: A498
A549 = system: A549
ACHN = system: ACHN
BT-549 = system: BT-549
CAKI-1 = system: CAKI-1
CCRF-CEM = system: CCRF-CEM
COLO 205 = system: COLO 205
DU-145 = system: DU-145
EKVX = system: EKVX
HCC 2998 = system: HCC 2998
HCT-116 = system: HCT-116
HCT-15 = system: HCT-15
HOP-62 = system: HOP-62
HT-29 = system: HT-29
IGROV-1 = system: IGROV-1
K562 = system: K562
KM12 = system: KM12
LOX IMVI = system: LOX IMVI
M14 = system: M14
MCF7 = system: MCF7
MDA-MB-231 = system: MDA-MB-231
MDA-MB-435 = system: MDA-MB-435
MDA-N = system: MDA-N
MOLT-4 = system: MOLT-4
Malme-3M = system: Malme-3M
NCI-H226 = system: NCI-H226
NCI-H23 = system: NCI-H23
NCI-H460 = system: NCI-H460
NCI-H522 = system: NCI-H522
NCI/ADR-RES = system: NCI/ADR-RES
OVCAR-3 = system: OVCAR-3
OVCAR-4 = system: OVCAR-4
OVCAR-5 = system: OVCAR-5
OVCAR-8 = system: OVCAR-8
PC-3 = system: PC-3
RPMI-8226 = system: RPMI-8226
RXF 393 = system: RXF 393
SF-268 = system: SF-268
SF-295 = system: SF-295
SF-539 = system: SF-539
SK-MEL-28 = system: SK-MEL-28
SK-MEL-2 = system: SK-MEL-2
SK-MEL-5 = system: SK-MEL-5
SK-OV-3 = system: SK-OV-3
SN12C = system: SN12C
SNB-19 = system: SNB-19
SNB-75 = system: SNB-75
SR = system: SR
SW-620 = system: SW-620
T47D = system: T47D
TK-10 = system: TK-10
U-251 = system: U-251
UACC-257 = system: UACC-257
UACC-62 = system: UACC-62
UO-31 = system: UO-31
HL-60 = system: HL-60

Structure (SMILES): C[C@]12CC[C@@H]3c4ccc(O)cc4CC[C@H]3[C@@H]1C/C(=C\c1ccc([N+](=O)[O-])cc1)C2=O
- GI50 (786-0): > 100 µM (inactive)
- GI50 (A498): > 100 µM (inactive)
- GI50 (A549): 57.9 µM (inactive)
- GI50 (ACHN): 61.4 µM (inactive)
- GI50 (BT-549): > 100 µM (inactive)
- GI50 (CAKI-1): > 100 µM (inactive)
- GI50 (CCRF-CEM): 53.7 µM (inactive)
- GI50 (COLO 205): > 100 µM (inactive)
- GI50 (DU-145): 50 µM (inactive)
- GI50 (EKVX): 52.6 µM (inactive)
- GI50 (HCC 2998): 73.3 µM (inactive)
- GI50 (HCT-116): 37.7 µM (inactive)
- GI50 (HCT-15): 67 µM
- GI50 (HOP-62): 33.7 µM (inactive)
- GI50 (HT-29): 18.6 µM (inactive)
- GI50 (IGROV-1): > 100 µM (inactive)
- GI50 (K562): 99.8 µM (inactive)
- GI50 (KM12): 42.6 µM (inactive)
- GI50 (LOX IMVI): 36.6 µM (inactive)
- GI50 (M14): 53.3 µM (inactive)
- GI50 (MCF7): 52.1 µM (inactive)
- GI50 (MDA-MB-231): 67.6 µM (inactive)
- GI50 (MDA-MB-435): 37.8 µM (inactive)
- GI50 (MDA-N): 49.5 µM (inactive)
- GI50 (MOLT-4): > 100 µM (inactive)
- GI50 (Malme-3M): 67.6 µM (inactive)
- GI50 (NCI-H226): 71.6 µM (inactive)
- GI50 (NCI-H23): 78.9 µM (inactive)
- GI50 (NCI-H460): 48 µM (inactive)
- GI50 (NCI-H522): 24.1 µM (inactive)
- GI50 (NCI/ADR-RES): 59.2 µM (inactive)
- GI50 (OVCAR-3): 74 µM (inactive)
- GI50 (OVCAR-4): > 100 µM (inactive)
- GI50 (OVCAR-5): > 100 µM (inactive)
- GI50 (OVCAR-8): 34.9 µM (inactive)
- GI50 (PC-3): 37.2 µM (inactive)
- GI50 (RPMI-8226): > 100 µM (inactive)
- GI50 (RXF 393): 15.9 µM (inactive)
- GI50 (SF-268): 52.6 µM (inactive)
- GI50 (SF-295): > 100 µM (inactive)
- GI50 (SF-539): 29.9 µM (inactive)
- GI50 (SK-MEL-28): > 100 µM (inactive)
- GI50 (SK-MEL-2): 44.6 µM (inactive)
- GI50 (SK-MEL-5): 41.5 µM (inactive)
- GI50 (SK-OV-3): > 100 µM (inactive)
- GI50 (SN12C): > 100 µM (inactive)
- GI50 (SNB-19): > 100 µM (inactive)
- GI50 (SNB-75): 50.7 µM (inactive)
- GI50 (SR): 65.3 µM (inactive)
- GI50 (SW-620): > 100 µM (inactive)
- GI50 (T47D): 40 µM (inactive)
- GI50 (TK-10): 80 µM (inactive)
- GI50 (U-251): 40.1 µM (inactive)
- GI50 (UACC-257): 34.8 µM (inactive)
- GI50 (UACC-62): 37.8 µM (inactive)
- GI50 (UO-31): 77.1 µM (inactive)

Structure (SMILES): CCOP(=O)(/C=C\n1ccc(=O)[nH]c1=O)OCC
- GI50 (786-0): > 100 µM (inactive)
- GI50 (A498): > 100 µM (inactive)
- GI50 (A549): > 100 µM (inactive)
- GI50 (ACHN): > 100 µM (inactive)
- GI50 (BT-549): > 100 µM (inactive)
- GI50 (CAKI-1): > 100 µM (inactive)
- GI50 (CCRF-CEM): > 100 µM (inactive)
- GI50 (COLO 205): > 100 µM (inactive)
- GI50 (DU-145): > 100 µM (inactive)
- GI50 (EKVX): > 100 µM (inactive)
- GI50 (HCT-116): > 100 µM (inactive)
- GI50 (HCT-15): > 100 µM
- GI50 (HL-60): > 100 µM (inactive)
- GI50 (HOP-62): > 100 µM (inactive)
- GI50 (HT-29): > 100 µM (inactive)
- GI50 (IGROV-1): > 100 µM (inactive)
- GI50 (K562): > 100 µM (inactive)
- GI50 (KM12): > 100 µM (inactive)
- GI50 (LOX IMVI): > 100 µM (inactive)
- GI50 (M14): > 100 µM (inactive)
- GI50 (MCF7): > 100 µM (inactive)
- GI50 (MDA-MB-231): > 100 µM (inactive)
- GI50 (MDA-MB-435): > 100 µM (inactive)
- GI50 (MDA-N): > 100 µM (inactive)
- GI50 (MOLT-4): > 100 µM (inactive)
- GI50 (NCI-H226): > 100 µM (inactive)
- GI50 (NCI-H23): > 100 µM (inactive)
- GI50 (NCI-H460): > 10 µM (inactive)
- GI50 (NCI-H522): > 100 µM (inactive)
- GI50 (NCI/ADR-RES): > 100 µM (inactive)
- GI50 (OVCAR-3): > 100 µM (inactive)
- GI50 (OVCAR-4): > 100 µM (inactive)
- GI50 (OVCAR-5): > 100 µM (inactive)
- GI50 (OVCAR-8): > 100 µM (inactive)
- GI50 (PC-3): > 100 µM (inactive)
- GI50 (RPMI-8226): > 100 µM (inactive)
- GI50 (RXF 393): > 100 µM (inactive)
- GI50 (SF-268): > 100 µM (inactive)
- GI50 (SF-295): > 100 µM (inactive)
- GI50 (SF-539): > 100 µM (inactive)
- GI50 (SK-MEL-28): > 100 µM (inactive)
- GI50 (SK-MEL-2): > 100 µM (inactive)
- GI50 (SK-MEL-5): > 100 µM (inactive)
- GI50 (SK-OV-3): > 100 µM (inactive)
- GI50 (SN12C): > 100 µM (inactive)
- GI50 (SNB-19): > 100 µM (inactive)
- GI50 (SNB-75): > 100 µM (inactive)
- GI50 (SW-620): > 100 µM (inactive)
- GI50 (T47D): > 100 µM (inactive)
- GI50 (TK-10): > 100 µM (inactive)
- GI50 (U-251): > 100 µM (inactive)
- GI50 (UACC-257): > 100 µM (inactive)
- GI50 (UACC-62): > 100 µM (inactive)
